Key:
CXCR1 = molecular target: T1, CXCR1 (Homo sapiens, UniProt P25024); experiment: Wash-resistant inhibition of CXCL8-mediated calcium flux, CXCR1-transfected RBL cells; assay type: cell-based; settings: 30 min incubation at 0.4, 2, 10 μM, then washout
T1 construct: expressed in transfected cells
T1 sequence (P25024 1-350): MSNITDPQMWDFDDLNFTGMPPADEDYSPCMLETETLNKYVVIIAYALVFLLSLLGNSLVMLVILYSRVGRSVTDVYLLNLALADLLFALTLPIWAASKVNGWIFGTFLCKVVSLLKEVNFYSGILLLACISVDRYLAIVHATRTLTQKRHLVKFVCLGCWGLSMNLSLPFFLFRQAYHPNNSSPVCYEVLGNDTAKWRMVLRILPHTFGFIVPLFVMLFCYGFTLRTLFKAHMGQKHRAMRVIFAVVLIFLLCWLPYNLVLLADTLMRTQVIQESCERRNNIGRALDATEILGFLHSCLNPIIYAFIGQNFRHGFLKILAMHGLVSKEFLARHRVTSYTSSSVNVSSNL
Description: (§1) In order to test this hypothesis, RBL cells (10^7 cells/ml) stably transfected with either CXCR1 or CXCR2 were (1) incubated with SX-682 at various concentrations for 30 minutes at 37° C., (2) washed and resuspended in assay buffer (RPMI/2% serum) at room temperature, and (3) assayed for CXCL8-mediated calcium response at time points up to 12 h after inhibitor washout. The concentrations of SX-682 tested were 0 (positive control), 0 (negative control), 0.4, 2, and 10 μM. At 30 minutes before each time point, a 56.25 μl aliquot of the cells were removed and loaded for 30 minutes at room temperature in the dark with FLIPR™ 3 reagent (262.5 μl per tube). Following FLIPR™ 3 incubation, cells were assayed for CXCL8 mediated intracellular calcium release as described in Pharmacology Example 1.

CXCR2 = molecular target: T2, CXCR2 (Homo sapiens, UniProt P25025); experiment: Wash-resistant inhibition of CXCL8-mediated calcium flux, CXCR2-transfected RBL cells; assay type: cell-based; settings: 30 min incubation at 0.4, 2, 10 μM, then washout
T2 construct: expressed in transfected cells
T2 sequence (P25025 1-360): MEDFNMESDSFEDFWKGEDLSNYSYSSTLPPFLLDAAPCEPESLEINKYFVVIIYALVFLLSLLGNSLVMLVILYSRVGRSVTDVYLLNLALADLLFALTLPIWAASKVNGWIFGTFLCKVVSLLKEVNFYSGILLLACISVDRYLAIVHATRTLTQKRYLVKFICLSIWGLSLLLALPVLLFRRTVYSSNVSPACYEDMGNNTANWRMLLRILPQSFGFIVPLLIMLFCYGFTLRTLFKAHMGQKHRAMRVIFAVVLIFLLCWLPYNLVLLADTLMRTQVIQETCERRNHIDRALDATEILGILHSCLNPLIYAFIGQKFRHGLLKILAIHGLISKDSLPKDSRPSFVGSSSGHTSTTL
Description: as §1

Sprague-Dawley rats = experiment: Ozone rat model of pulmonary inflammation (neutrophil influx into BALF); assay type: in vivo
Description: SX-682 was assayed in an in vivo rat model of pulmonary inflammation. Activity in this model of pulmonary inflammation provides evidence that supports the use of SX-682 in the treatment of a number of pulmonary inflammatory diseases, including chronic obstructive pulmonary disease (COPD) and bronchopulmonary dysplasia (BPD). In this experiment, Sprague-Dawley rats (n=4 per cohort) were dosed intravenously only once at t=0 with either vehicle control (dimethylformamide/PEG400/saline, 40:40:20), positive inhibitor control (SX-576, 1 mg/kg) or the test compound (SX-682, 1 mg/kg). The rats were then placed in air (negative exposure group; vehicle control only) or 1 ppm ozone (positive exposure group; vehicle control, positive inhibitor control SX-576, and test compound SX-682) for 4 hours. The rats were then sacrificed at t=24 hours, and the bronchoalveolar lavage fluid (BALF) was collected. The cells were spun down, stained with Wright-Giemsa and counted. In the negative exposure group, no neutrophils were observed when stained. In the ozone exposed rats treated with vehicle however, there was a brisk influx of neutrophils of approximately 14,000 per mL of BALF (FIG. 5).

[1] = system: T11 mouse model of breast cancer; experiment: T11 mouse model of breast cancer; assay type: in vivo
Excerpt: The T11 model is a validated mouse model of breast cancer, which derives from the serial orthotopic transplantation of a murine breast tumor derived from a p53-null mouse into a syngeneic p53 competent recipient, and features sporadic, somatic K-Ras mutation (Herschkowitz, 2012, Proc Natl Acad Sci, 109:2778-83, herein incorporated by reference). Tumors from the T11 model display an RNA expression pattern characteristic of the human claudin-low disease, and are extremely aggressive, with the majority of untreated animals surviving less than 21 days from the time of enrollment in the therapy studies. Treatment regimens were started following tumor manifestation. SX-682 was given orally via medicated feed, at an approximate dose of 10 mg/day/mouse. In brief, the medicated feed was prepared by Research Diets (New Brunswick, N.J.) by incorporating 15.2 grams of SX-682 spray dried dispersion (as prepared in Formulation Example 1) into 1042 grams of standard rodent diet with 10% kcals from fat. The medicated feed was formed into pellets. Carboplatin (CP) was administered once weekly via intraperitoneal injection at a dose of 50 mg/kg. […] Mean±SE. *** P<0.0001 (linear regression).

[2] = system: C3Tag mouse model of breast cancer; experiment: C3Tag mouse model of breast cancer; assay type: in vivo
Excerpt: The C31-T-antigen (C3Tag) mouse model is a validated model of human triple-negative basal cell breast cancer as shown by gene expression analysis (Maroulakou, 1994, Proc Natl Acad Sci, 91:11236-40, herein incorporated by reference). The expressed large T-antigen binds and inactivates the RB and p53 tumor suppressor genes, explaining why this model faithfully recapitulates human basal breast cancer, which also harbors RB and p53 inactivation. This model also has frequent K-Ras amplification and infrequent Ras mutations. Treatment regimens were started following tumor manifestation. SX-682 was given orally via medicated feed, at an approximate dose of 10 mg/day/mouse. CP was administered once weekly via intraperitoneal injection at a dose of 50 mg/kg.

[3] = system: Ptenpc−/−p53pc−/−Smad4pc−/− mice; experiment: Ptenpc−/−p53pc−/−Smad4pc−/− mouse model of castration resistant prostate cancer; assay type: in vivo; settings: 4-6 weeks
Description: The genetically engineered Ptenpc−/−p53pc−/−Smad4pc−/− mouse is a prostate-specific PB promoter-driven (PB-Cre4) conditional triple knockout model (i.e., prostate-specific deletion of all three tumor suppressors, Pten, p53 and Smad4 occurs in the ‘prostate cancer’ or ‘pc’). […] SX-682 was used as a spray dried dispersion (Formulation Example 1), and was administered to mice via oral gavage as a suspension in 0.5% aq. methylcellulose. Treatment was continued for 4-6 weeks and prostate weights measured to determine tumor burden. […] Mean+SE.

[4] = SX-682 10 mg/day/mouse oral feed + CP 50 mg/kg weekly i.p.

O=C(Nc1ccc(F)cc1)c1cnc(SCc2cc(OC(F)(F)F)ccc2B(O)O)nc1 [SX-682, 2-(2-boronic acid-5-trifluoromethoxy-benzylsulfanyl)-pyrimidine-5-carboxylic acid (4-fluoro-phenyl)-amide]
time inhibition of calcium flux is sustained after washout (CXCR1): at least 12 hours | time inhibition of calcium flux is sustained after washout (CXCR2): at least 12 hours | influx of neutrophils into the lungs (BALF) vs vehicle (Sprague-Dawley rats; 1 mg/kg i.v. once, 1 ppm ozone 4 hours, BALF at 24 hours): significantly decreased the influx of neutrophils | time inhibition of neutrophil influx into BALF is sustained (Sprague-Dawley rats; single dose of 1 mg/kg i.v.): 24 h | tumor volume, SX-682 alone ([1]; 10 mg/day/mouse oral, 1-2 weeks): effective therapy | tumor growth, SX-682 added to carboplatin [1, 4]: significantly reduced tumor growth | tumor growth vs untreated controls, SX-682 alone ([2]; 10 mg/day/mouse oral feed): significantly reduced tumor growth | median survival, SX-682 combined with CP [2, 4]: > 60 days | tumor growth vs untreated controls, SX-682 in combination with carboplatin [2, 4]: significantly reduced tumor growth | median survival, single agent ([2]; SX-682 10 mg/day/mouse oral, carboplatin 50 mg/kg weekly i.p., vehicle 18 days): 28 days | prostate weight (tumor burden), SX-682 alone ([3]; 50 mg/kg b.i.d. oral gavage): inhibited prostate cancer | prostate weight (tumor burden), SX-682 plus ICB ([3]; SX-682 50 mg/kg b.i.d. oral + anti-PD1 and anti-CTLA4 200 μg each 3×/week): significantly better than control or either treatment alone

Reference: patent publication US10561676B2, “Method for treating cancer using dual antagonists of CXCR1 and CXCR2” (Syntrix Biosystems, Inc., priority 2018, dated 2020)
